The values below come from patent publication US20090047243A1, “COMBINATIONS FOR THE TREATMENT OF B-CELL PROLIFERATIVE DISORDERS” (priority 2007, published 2009).

Structures are written as SMILES. Structures can show the parent of a compound that is named as a salt.

The test system of assay [1] is H929 multiple myeloma cell line. As to the kind of experiment: Anti-proliferation assay (ATPLite, 72 h). It is filed as cell-based, human. Also on record: key: S = lnfX·lnfY·ΣIdata(Idata−ILoewe), volume over Loewe additivity. As to conditions: for synergy (score), PDEi × HE-NECA: 6×6 cross of PDE inhibitor or PDE inhibitor mixture with HE-NECA. In outline:
(§1)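 Cells treated 72 h with compounds in 2- or 3-fold serial dilutions (12 concentrations for single agents; 6×6 matrix for combinations); INA-6 medium supplemented with 10 ng/ml IL-6. Viability by ATPLite luminescence; % inhibition vs untreated wells, curves fitted, combinations assessed by Loewe additivity and Synergy Score.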

For assay [2], the system named is RPMI-8226 multiple myeloma cell line. As to the kind of experiment: Anti-proliferation assay (ATPLite, 72 h). Further details: key: S = lnfX·lnfY·ΣIdata(Idata−ILoewe), volume over Loewe additivity. The class given is cell-based, human. In short, it runs like this: as §1
In general terms: Cellular ATP, detected with luciferase, serves as a proxy for viable cell number.

The target in the next assay is A2A receptor (Homo sapiens, UniProt P29274). As to conditions: cited from earlier work.
Chain of A2A receptor (P29274 whole entry): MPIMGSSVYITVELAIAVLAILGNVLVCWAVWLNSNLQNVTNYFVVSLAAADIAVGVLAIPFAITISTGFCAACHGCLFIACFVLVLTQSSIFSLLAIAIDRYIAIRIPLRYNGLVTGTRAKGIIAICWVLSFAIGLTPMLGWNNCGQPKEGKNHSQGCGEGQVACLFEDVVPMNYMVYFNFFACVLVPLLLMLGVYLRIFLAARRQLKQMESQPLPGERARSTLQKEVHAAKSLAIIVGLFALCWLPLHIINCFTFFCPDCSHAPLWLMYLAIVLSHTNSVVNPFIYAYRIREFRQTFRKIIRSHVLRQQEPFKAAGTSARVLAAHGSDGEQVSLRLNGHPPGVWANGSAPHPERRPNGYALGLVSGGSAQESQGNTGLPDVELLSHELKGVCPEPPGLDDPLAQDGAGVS
A further assay deals with patient CLL cells. As to the kind of experiment: Apoptosis assay (Hoechst 33342, flow cytometry, 48 h). Also on record: unit not given here. Conditions: CGS-21680 0 μM. It is filed as cell-based, human. The text has this:
Blood samples were obtained in heparinized tubes with IRB-approved consent from flow cytometry-confirmed B-CLL patients that were either untreated or for whom at least 1 month had elapsed since chemotherapy. Patients with active infections or other serious medical conditions were not included in this study. Patients with white blood cell counts of less than 15,000/μl by automated analysis were excluded from this study. Whole blood was layered on Ficoll-Hystopaque (Sigma), and peripheral blood mononuclear cells (PBMC) isolated after centrification. […] One million cells were stained with anti-CD5-PE and anti-CD19-PE-Cy5 (Becton Dickenson, Franklin Lakes N.J.). The percentage of B-CLL cells was defined as the percentage of cells doubly expressing CD5 and CDl9, as determined by flow cytometry. […] Compound master plates were diluted 1:50 into complete media to create working compound dilutions. Compound crosses were then created by diluting two working dilution plates 1:10 into each plate of cells. […] Hoechst 33342 (Molecular Probes, Eugene Oreg.) at a final concentration of 0.25 μg/1 mL was added to each well, and the cells incubated at 37° C. for an additional ten minutes before being placed on ice until analysis. Plates were then analyzed on a LSR-II flow cytometer (Becton Dickenson, Franklin Lakes, N.J.) equipped with the High Throughput Sampling (HTS) option in high throughput mode. […] The apoptotic fraction was calculated using FlowJo software (Tree Star Inc., Ashland, Oreg.) after excluding debris by a FSC/SSC gate and subsequently gating for cells that accumulate the Hoechst dye.
A general note: Flow cytometry measures light scatter and fluorescence of single cells or particles in a stream.

The mark [3] stands for this setting: PDE inhibitor crossed with (S) ENBA, H929.
Setting [4] is: PDE inhibitor crossed with Chloro-IB-MECA, H929.
The mark [5] stands for this setting: PDE inhibitor crossed with HE-NECA, H929.
[6] abbreviates: in combination with adenosine receptor agonist CGS-21680, H929.
[7] abbreviates: in combination with adenosine receptor agonist HE-NECA, H929.
[8] abbreviates: in combination with adenosine receptor agonist regadenoson, H929.
Where [9] appears, read: in combination with adenosine receptor agonist CGS-21680, RPMI 8226.
[10] abbreviates: in combination with adenosine receptor agonist HE-NECA, RPMI-8226.
Setting [11] is: in combination with adenosine receptor agonist regadenoson, RPMI 8226.

Consider `COc1cc(-c2ccc(=O)[nH]n2)ccc1OC(F)F` [Zardaverine, 6-(4-(difluoromethoxy)-3-methoxyphenyl)-3(2H)-Pyridazinone], for which the “synergy (score), PDEi × HE-NECA” value in assay [1] (H929) was determined as 3.39. Also, the synergy score in assay [1] (setting [3]) amounted to 4.02; in assay [1] (setting [4]) it was 2.97; in assay [1] (setting [5]), 3.39; in assay [1] (setting [6]), 3.75; in assay [1] (setting [7]), 3.39; in assay [1] (setting [8]), 1.02. Besides, the synergy score stood at 0.13 in assay [2] (setting [9]), 0.43 in assay [2] (setting [10]) and 0.52 in assay [2] (setting [11]).

One may read the Ki as the equilibrium dissociation constant of an inhibitor or competing ligand from its target. Consider `CCCCC#Cc1nc(N)c2ncn([C@@H]3O[C@H](C(=O)NCC)[C@@H](O)[C@H]3O)c2n1` [HE-NECA, hexynyladenosine-5′-N-ethylcarboxamide], for which the Ki at A2A receptor was roughly 0.027 µM.

Consider `COc1cc2c(cc1OC)-c1cc(=Nc3c(C)cc(C)cc3C)n(C)c(=O)n1CC2` [Trequinsin hydrochloride, 2,3,6,7-tetrahydro-9,10-dimethoxy-3-methyl-2-((2,4,6-trimethylphenyl)imino)-4H-pyrimido(6,1-a)isoquinolin-4-one], for which, in assay [1] (H929), the “synergy (score), PDEi × HE-NECA” value is on record as 4.22. The synergy score was 3.38 in assay [1] (setting [3]); 3.04 in assay [1] (PDE inhibitor crossed with ADAC, H929); 2.77 in assay [1] (setting [4]); 4.34 in assay [1] (setting [5]); 3.044 in assay [1] (in combination with adenosine receptor agonist ADAC, H929); 3.33 in assay [1] (setting [6]). In addition, the synergy score in assay [1] (setting [7]) is listed as 3.141; in assay [1] (setting [8]) it was 1.99; in assay [2] (in combination with adenosine receptor agonist ADAC, RPMI-8226) it was 0.9183; in assay [2] (setting [9]) it was 0.72; in assay [2] (setting [10]), 0.793; in assay [2] (setting [11]) it was 0.4. The Induction of apoptosis with patient CLL cells (Trequinsin 0.22 μM) was 8.9; in the assay with patient CLL cells (Trequinsin 2 μM) it was 19; with patient CLL cells (Trequinsin […]), 9.9.
